In the NIST ThermoML archive (doi:10.1021/je200150r):

Assay: xn = mol fraction of the nth substance listed
Conditions: 101 kPa, Liquid; for viscosity: Capillary tube (Ostwald / Ubbelohde) method; for mass density: Pycnometric method

OCc1ccccc1 [benzenemethanol] + CCC(C)=O
Conditions	mass density, 303.15 K [kg/m3]	mass density, 308.15 K [kg/m3]	mass density, 313.15 K [kg/m3]	mass density, 318.15 K [kg/m3]	mass density, 323.15 K [kg/m3]	viscosity, 303.15 K [mPa·s]	viscosity, 308.15 K [mPa·s]	viscosity, 313.15 K [mPa·s]	viscosity, 318.15 K [mPa·s]	viscosity, 323.15 K [mPa·s]
x1 = 0.1003	825.4	820.4	815.4	810.4	805.3	0.446	0.424	0.403	0.385	0.368
x1 = 0.2	854.7	849.9	845.1	840.3	835.5	0.554	0.524	0.497	0.472	0.451
x1 = 0.301	882.5	877.8	873	868.3	863.6	0.697	0.655	0.616	0.582	0.551
x1 = 0.3991	907.5	903	898.4	893.9	889.3	0.876	0.818	0.765	0.718	0.676
x1 = 0.5001	932.6	928.2	923.8	919.4	915	1.131	1.046	0.97	0.904	0.845
x1 = 0.6	956.3	952	947.8	943.6	939.3	1.476	1.351	1.242	1.146	1.063
x1 = 0.7008	978.2	974.1	969.9	965.8	961.7	1.947	1.761	1.599	1.461	1.341
x1 = 0.8001	998.5	994.6	990.5	985.6	982.7	2.586	2.307	2.063	1.866	1.694
x1 = 0.8997	1018.1	1014.3	1010.4	1006.5	1002.7	3.452	3.033	2.682	2.391	2.144
x1 = 1	1037.6	1033.8	1030.1	1026.3	1022.5	4.689	4.058	3.531	3.103	2.747
